T/C data for 28 compounds are collected here from PubChem BioAssay AID218 (DTP/NCI, 2004).

Values joined by “and” are separate entries in the source; they are usually repeats but may differ in a detail not shown here. Equal entries are not always repeated.

The test deals with C57BL/6 mice, Adenocarcinoma 755 sc, tumor weight T/C. The test can be described thus: NCI In Vivo Anticancer Drug Screen. Data for tumor model Adenocarcinoma 755 (subcutaneous) in C57BL/6 mice. The following applies: endpoint: mean tumor weight, higher = larger tumour. Here is the method: The antitumor activity of compounds was measured in mice bearing transplantable tumors. Survival or tumor size were measured and the results are expressed as the measurement made in the treated group (T) divided by the measurement made in the vehicle treated control group (C). The tumor model used in this assay is Adenocarcinoma 755 (subcutaneous) in C57BL/6 mice

[1] abbreviates: dose: 6.25 mg/kg/injection, schedule: Q01DX011 (ip), vehicle: saline.
Where [2] appears, read: dose: 12.5 mg/kg/injection, schedule: Q01DX011 (ip), vehicle: saline.
The mark [3] stands for this setting: dose: 25.0 mg/kg/injection, schedule: Q01DX011 (ip), vehicle: saline.
Setting [4] is: dose: 50.0 mg/kg/injection, schedule: Q01DX011 (ip), vehicle: saline.
Setting [5] is: dose: 100.0 mg/kg/injection, schedule: Q01DX011 (ip), vehicle: saline.
The mark [6] stands for this setting: dose: 125.0 mg/kg/injection, schedule: Q01DX011 (ip), vehicle: saline.
[7] abbreviates: dose: 150.0 mg/kg/injection, schedule: Q01DX011 (ip), vehicle: saline.
Setting [8] is: dose: 200.0 mg/kg/injection, schedule: Q01DX011 (ip), vehicle: saline.
Setting [9] is: dose: 300.0 mg/kg/injection, schedule: Q01DX011 (ip), vehicle: saline.
[10] abbreviates: dose: 400.0 mg/kg/injection, schedule: Q01DX011 (ip), vehicle: saline.
Setting [11] is: dose: 10.0 mg/kg/injection, schedule: Q01DX011 (ip), vehicle: saline.
Setting [12] is: dose: 20.0 mg/kg/injection, schedule: Q01DX011 (ip), vehicle: saline.
[13] abbreviates: dose: 40.0 mg/kg/injection, schedule: Q01DX011 (ip), vehicle: saline.
[14] abbreviates: dose: 30.0 mg/kg/injection, schedule: Q01DX011 (ip), vehicle: saline.

What is called T/C is the result in the treated group divided by that in the control group, in per cent.

For the compound `Cc1ncc(CO)c(C)c1O`, the T/C was 88 % of control (dose: 3.13 mg/kg/injection, schedule: Q01DX011 (ip), vehicle: saline); 107 % of control under setting [1]; 98 % of control under setting [2]; 106 % of control under setting [3]; 74 % of control and 88 % of control under setting [4]; 84 % of control and 107 % of control under setting [5]. Also, the T/C is 47 % of control under setting [6]; 56 % of control and 66 % of control under setting [7]; 119 % of control under setting [8].

With `O=P1(N(CCF)CCCl)NCCCO1` (stereo not given), the T/C under setting [1] is 76 % of control, the T/C under setting [2] was 94 % of control, the T/C under setting [3] was 66 % of control and the T/C under setting [4] is 88 % of control.

Turning to `O=C([O][Hg][CH2]C1COC([CH2][Hg][O]C(=O)c2ccccc2)CO1)c1ccccc1` (stereo not given), the T/C (dose: 16.0 mg/kg/injection, schedule: Q01DX009 (ip), vehicle: saline) was 82 % of control; the T/C (dose: 32.0 mg/kg/injection, schedule: Q01DX009 (ip), vehicle: saline) was 77 % of control; the T/C (dose: 32.0 mg/kg/injection, schedule: Q01DX010 (ip), vehicle: saline) was 48 % of control.

As for `c1ccc2nc(-c3cc4ccccc4s3)ccc2c1`, the T/C under setting [9] is 11 % of control.

On to `CNC=O`, for which the T/C reads like this: under setting [3], 92 % of control; under setting [4], 112 % of control; under setting [5], 64 % of control and 82 % of control; under setting [6], 98 % of control; (dose: 175.0 mg/kg/injection, schedule: Q02DX006 (ip), vehicle: water) 40 % of control; under setting [8], 9 % of control and 30 % of control. In addition, for the setting “dose: 225.0 mg/kg/injection, schedule: Q02DX006 (ip), vehicle: water”, the T/C was 56 % of control.

On to `CCOC(N)=O`, for which the T/C by setting is: under setting [8], 34 % of control; under setting [9], 38 % of control; under setting [10], 20 % of control; (dose: 500.0 mg/kg/injection, schedule: Q02DX006 (ip), vehicle: water) 49 % of control; (dose: 600.0 mg/kg/injection, schedule: Q01DX011 (ip), vehicle: saline) 3 % of control; (dose: 600.0 mg/kg/injection, schedule: Q02DX006 (ip), vehicle: water) 34 % of control.

Take `CN1CC(=O)NC1=O`: the T/C runs as follows: (dose: 250.0 mg/kg/injection, schedule: Q01DX011 (ip), vehicle: saline) 49 % of control; (dose: 500.0 mg/kg/injection, schedule: Q01DX011 (ip), vehicle: saline) 68 % of control; (dose: 1000.0 mg/kg/injection, schedule: Q01DX011 (ip), vehicle: saline) 41 % of control; (dose: 2000.0 mg/kg/injection, schedule: Q01DX011 (ip), vehicle: saline) 70 % of control.

Regarding `Cn1cnc2[nH]cnc(=S)c21`, the T/C runs as follows: (dose: 50.0 mg/kg/injection, schedule: Q01DX011 (ip), vehicle: carboxymethylcellulose (CMC)) 110 % of control; under setting [8], 45 % of control; under setting [9], 30 % of control; under setting [10], 22 % of control.

As for `CC(C)CNC(=S)N/N=C/c1ccccc1`, the T/C reads like this: (dose: 75.0 mg/kg/injection, schedule: Q02DX006 (ip), vehicle: other) 70 % of control; (dose: 100.0 mg/kg/injection, schedule: Q02DX006 (ip), vehicle: other) 94 % of control.

`NC(=S)N/N=C/c1cccc([N+](=O)[O-])c1`: the T/C reads like this: (dose: 75.0 mg/kg/injection, schedule: Q02DX006 (ip), vehicle: saline) 36 % of control; (dose: 100.0 mg/kg/injection, schedule: Q02DX006 (ip), vehicle: saline) 47 % of control.

With `CS(=O)(=O)OCCC(=O)N1CCN(C(=O)CCOS(C)(=O)=O)CC1`, the T/C by setting is: (dose: 6.25 mg/kg/injection, schedule: Q01DX011 (ip), vehicle: methylcellulose (MC)) 83 % of control; (dose: 12.5 mg/kg/injection, schedule: Q01DX011 (ip), vehicle: methylcellulose (MC)) 86 % of control; (dose: 25.0 mg/kg/injection, schedule: Q01DX011 (ip), vehicle: methylcellulose (MC)) 55 % of control.

For the compound `Clc1ccccc1CSc1ncnc2nc[nH]c12`, the T/C runs as follows: (dose: 75.0 mg/kg/injection, schedule: Q01DX011 (ip), vehicle: saline) 13 % of control; under setting [5], 5 % of control; under setting [7], 1 % of control; under setting [8], 13 % of control.

As to `Cn1cnc2ncnc(Cl)c21`, the T/C (dose: 75.0 mg/kg/injection, schedule: Q01DX011 (ip), vehicle: carboxymethylcellulose (CMC)) is 183 % of control.

On to `CC(=O)OCC(=O)[C@@]1(O)CC[C@H]2[C@@H]3CCC4=CC(=O)CC[C@]4(C)[C@H]3C(=O)C[C@@]21C`, for which the T/C reads like this: (dose: 40.0 mg/kg/injection, schedule: Q01DX011 (sc), vehicle: saline) 24 % of control; (dose: 45.0 mg/kg/injection, schedule: Q01DX011 (sc), vehicle: saline) 43 % of control; (dose: 50.0 mg/kg/injection, schedule: Q01DX011 (sc), vehicle: saline) 16 % of control; (dose: 60.0 mg/kg/injection, schedule: Q01DX011 (sc), vehicle: saline) 15 % of control and 39 % of control; (dose: 100.0 mg/kg/injection, schedule: Q01DX011 (sc), vehicle: saline) 8 % of control.

Regarding `CSc1nc(N)nc2nc[nH]c12`, the T/C by setting is: under setting [11], 1 % of control; (dose: 15.0 mg/kg/injection, schedule: Q01DX011 (ip), vehicle: saline) 1 % of control.

For `Nc1c(Br)cc2c(c1Br)Cc1cc([N+](=O)[O-])ccc1-2`, the T/C (dose: 31.3 mg/kg/injection, schedule: Q01DX011 (ip), vehicle: saline) was 17 % of control and the T/C under setting [6] is 17 % of control.

Take `Clc1ncnc2c1ncn2Cc1ccco1`: the T/C runs as follows: under setting [2], 63 % of control; under setting [3], 62 % of control; under setting [4], 86 % of control; under setting [5], 51 % of control.

Consider `Nc1nc(=S)c2[nH]cnc2[nH]1`, for which the T/C by setting is: (dose: 0.06 mg/kg/injection, schedule: Q01DX011 (ip), vehicle: carboxymethylcellulose (CMC)) 81 % of control; (dose: 0.13 mg/kg/injection, schedule: Q01DX011 (ip), vehicle: carboxymethylcellulose (CMC)) 111 % of control; (dose: 0.25 mg/kg/injection, schedule: Q01DX011 (ip), vehicle: carboxymethylcellulose (CMC)) 18 % of control; (dose: 0.5 mg/kg/injection, schedule: Q01DX011 (ip), vehicle: carboxymethylcellulose (CMC)) 7 % of control and 8 % of control; (dose: 0.5 mg/kg/injection, schedule: Q01DX011 (ip), vehicle: saline) 3 % of control; (dose: 1.0 mg/kg/injection, schedule: Q01DX011 (ip), vehicle: carboxymethylcellulose (CMC)) 7 % of control.

In the case of `O=c1[nH]cc(F)c(=O)[nH]1`, the T/C is 7 % of control (dose: 10.0 mg/kg/injection, schedule: Q01DX011 (ip), vehicle: carboxymethylcellulose (CMC)) and 61 % of control (dose: 20.0 mg/kg/injection, schedule: Q01DX011 (ip), vehicle: carboxymethylcellulose (CMC)).

For the compound `CC(C)Sc1nc(N)nc2nc[nH]c12`, the T/C under setting [5] was 7 % of control.

Take `Clc1nc(Cl)c2[nH]cnc2n1`: the T/C under setting [12] was 110 % of control and the T/C under setting [13] was 82 % of control.

On to `O=C(O)c1cc(=O)[nH]c(=S)[nH]1`, for which the T/C under setting [12] was 91 % of control, the T/C under setting [14] was 121 % of control, the T/C under setting [13] is 78 % of control and the T/C under setting [4] was 82 % of control.

As for `CS(=O)(=O)OCCCOS(C)(=O)=O`, the T/C was 83 % of control (dose: 15.0 mg/kg/injection, schedule: Q01DX011 (ip), vehicle: methylcellulose (MC)) and 35 % of control (dose: 30.0 mg/kg/injection, schedule: Q01DX011 (ip), vehicle: methylcellulose (MC)).

Regarding `CCOC(C)C(/C=N/NC(N)=S)=NNC(N)=S` (stereo not given), the T/C (dose: 120.0 mg/kg/injection, schedule: Q01DX011 (ip), vehicle: saline) was 59 % of control.

As for `CCCCCCCCCNc1ncnc2[nH]ncc12`, the T/C under setting [4] was 51 % of control and the T/C under setting [5] was 64 % of control.

In the case of `O=C(O)C(=O)CF`, under setting [4], the T/C is 63 % of control.

As to `CC1CN1P(=S)(N1CC1C)N1CC1C` (stereo not given), the T/C was 67 % of control (dose: 1.25 mg/kg/injection, schedule: Q01DX011 (ip), vehicle: saline); 78 % of control (dose: 2.5 mg/kg/injection, schedule: Q01DX011 (ip), vehicle: saline); 91 % of control (dose: 5.0 mg/kg/injection, schedule: Q01DX011 (ip), vehicle: saline); 73 % of control under setting [11].

Take `NNc1ncnc2nc[nH]c12`: the T/C runs as follows: under setting [14], 67 % of control; (dose: 60.0 mg/kg/injection, schedule: Q01DX011 (ip), vehicle: saline) 34 % of control.
